According to patent US20230248034A1, “A SWEETENER OR SWEETNESS ENHANCER COMPOSITION” (ANALYTICON DISCOVERY GMBH, priority 2020, published 2023):

Experiments:
[1] = Organoleptic test in combination with Rebaudioside M (Rebaudioside M enhancement, 2-AFC); type: in vivo; set-up: key: x = detected; conditions: compound below its sweetness perception level in 150 ppm Rebaudioside M vs 150 ppm Rebaudioside M, 12 to 15 panelists
Method: The isolated pure compounds were dissolved in non-carbonated mineral water (“Evian”) in a concentration of 50 ppm (0.05 mg/ml), 25 ppm (0.025 mg/ml), 12.5 pm (0.0125 mg/ml) and 6.125 ppm (0.006125 mg/ml). The sweet taste of each sample was detected by a panel of 3-4 panelists to detect the sweetness perception level. The highest concentration below the sweetness perception level was used for the evaluation of the sweet taste enhancement of Rebaudioside M.
(§1) A solution of the isolated compounds in a concentration below the sweetness perception level was dissolved in 150 ppm Rebaudioside M solution. The sweet taste of this sample was compared to the sweet taste of a 150 ppm Rebaudioside M solution by a panel of 12 to 15 panelists in a two-alternative forced-choice test (2-AFC. E2164-16_Standard Test Method for Directional Difference Test). The panelists were trained to differentiate between the sweetness of a 150 ppm and a 190 ppm Rebaudioside M solution.

[2] = Organoleptic test of the compounds against sucrose (sweetness); type: in vivo; set-up: key: 3: sweeter than the control solution; 2: sweetness comparable with the control solution; 1: less sweet than the control solution but still sweet; conditions: 0.4 mg/ml (400 ppm) in non-carbonated mineral water vs sucrose 20 g/l; panel of 3-4 panelists
Method: The isolated pure compound was dissolved in non-carbonated mineral water (“Evian”) in a concentration of 0.4 mg/ml (400 ppm). The sweet taste of each sample was compared by a panel of 3-4 panelists with a solution of sucrose in a concentration of 20 g/l.

[3] = Organoleptic test in combination with sucrose against sucrose (sucrose enhancement, 2-AFC); type: in vivo; set-up: key: x = detected; conditions: compound below its sweetness perception level in 6% sucrose vs 6% sucrose, 12 to 15 panelists
Method: The isolated pure compounds were dissolved in non-carbonated mineral water (“Evian”) in a concentration of 50 ppm (0.05 mg/ml), 25 ppm (0.025 mg/ml), 12.5 pm (0.0125 mg/ml) and […] (0.00625 mg/ml). The sweet taste of each sample was detected by a panel of 3-4 panelists to detect the sweetness perception level. The highest concentration below the sweetness perception level was used for the evaluation of the sweet taste enhancement of sucrose.
as §1, with “compound” for “compounds”, “6% sucrose” for “150 ppm Rebaudioside M”, “6%” for “150 ppm”, “7% Sucrose” for “190 ppm Rebaudioside M”

[4] = 5% sucrose in water; cited from earlier work

Row | SMILES | Reb M enhancement [1] | Sweetness [2] | Sucrose enhancement [3] | enhancement of the sweetness of sucrose [4] [%]
1 | C[C@@H]1O[C@@H](O[C@H]2[C@H](OC(=O)[C@]34CCC(C)(C)C[C@H]3C3=CCC5[C@@]6(C)C[C@H](O)[C@H](O[C@@H]7O[C@H](CO[C@@H]8OC[C@H](O)[C@H](O)[C@H]8O)[C@@H](O)[C@H](O)[C@H]7O)C(C)(C)C6CC[C@@]5(C)[C@]3(C)C[C@H]4O)OC[C@@H](O)[C@@H]2O)[C@H](O)[C@H](O[C@@H]2OC[C@](O)(CO)[C@H]2O)[C@H]1O[C@@H]1OC[C@H](O)[C@H](O[C@@H]2OC[C@@H](O)[C@H](O)[C@H]2O)[C@H]1O (stereo partly shown) [Astersaponin A] | x | 2 | x | –
2 | C[C@@H]1O[C@@H](O[C@H]2[C@H](OC(=O)[C@]34CCC(C)(C)C[C@H]3C3=CCC5[C@@]6(C)CC[C@H](O[C@@H]7O[C@H](CO[C@@H]8OC[C@H](O)[C@H](O)[C@H]8O)[C@@H](O)[C@H](O)[C@H]7O)C(C)(C)C6CC[C@@]5(C)[C@]3(C)C[C@H]4O)OC[C@@H](O)[C@@H]2O)[C@H](O)[C@H](O[C@@H]2OC[C@](O)(CO)[C@H]2O)[C@H]1O[C@@H]1OC[C@H](O)[C@H](O[C@@H]2OC[C@@H](O)[C@H](O)[C@H]2O)[C@H]1O (stereo partly shown) [Astersaponin B] | x | 1 | x | –
3 | C[C@@H]1O[C@@H](O[C@@H]2[C@@H](O[C@@H]3O[C@@H](C)[C@H](O[C@@H]4OC[C@H](O)[C@H](O[C@@H]5OC[C@@H](O)[C@H](O)[C@H]5O)[C@H]4O)[C@@H](OC4OC[C@](O)(CO)[C@H]4O)[C@H]3O)[C@H](OC(=O)[C@]34CCC(C)(C)C[C@H]3C3=CCC5[C@@]6(C)C[C@H](O)[C@H](O[C@@H]7O[C@H](CO[C@@H]8OC[C@H](O)[C@H](O)[C@H]8O)[C@@H](O)[C@H](O)[C@H]7O)C(C)(C)C6CC[C@@]5(C)[C@]3(C)C[C@H]4O)OC[C@H]2O)[C@H](O)[C@H](O)[C@H]1O (stereo partly shown) [Astersaponin C] | x | 3 | x | –
4 | C[C@@H]1O[C@@H](O[C@@H]2[C@@H](O[C@@H]3O[C@@H](C)[C@H](O[C@@H]4OC[C@H](O)[C@H](O[C@@H]5OC[C@@H](O)[C@H](O)[C@H]5O)[C@H]4O)[C@@H](O[C@@H]4OC[C@](O)(CO)[C@H]4O)[C@H]3O)[C@H](OC(=O)[C@]34CCC(C)(C)C[C@H]3C3=CCC5[C@@]6(C)CC[C@H](O[C@@H]7O[C@H](CO[C@@H]8OC[C@H](O)[C@H](O)[C@H]8O)[C@@H](O)[C@H](O)[C@H]7O)C(C)(C)C6CC[C@@]5(C)[C@]3(C)C[C@H]4O)OC[C@H]2O)[C@H](O)[C@H](O)[C@H]1O (stereo partly shown) [Astersaponin D] | x | 2 | x | –
5 | C[C@@H]1O[C@@H](O[C@H]2[C@H](OC(=O)[C@]34CCC(C)(C)C[C@H]3C3=CC[C@@H]5[C@@]6(C)C[C@H](O)[C@H](O[C@@H]7O[C@H](CO[C@@H]8OC[C@H](O)[C@H](O)[C@H]8O)[C@@H](O)[C@H](O)[C@H]7O)C(C)(C)[C@@H]6CC[C@@]5(C)[C@]3(C)C[C@H]4O)OC[C@@H](O)[C@@H]2O)[C@H](O)[C@H](O)[C@H]1O[C@@H]1OC[C@H](O)[C@H](O[C@@H]2OC[C@@H](O)[C@H](O)[C@H]2O)[C@H]1O [Astersaponin E] | x | 2 | x | –
6 | C[C@@H]1O[C@@H](O[C@H]2[C@H](OC(=O)[C@]34CCC(C)(C)C[C@H]3C3=CCC5[C@@]6(C)CC[C@H](O[C@@H]7O[C@H](CO[C@@H]8OC[C@H](O)[C@H](O)[C@H]8O)[C@@H](O)[C@H](O)[C@H]7O)C(C)(C)C6CC[C@@]5(C)[C@]3(C)C[C@H]4O)OC[C@@H](O)[C@@H]2O)[C@H](O)[C@H](O)[C@H]1O[C@@H]1OC[C@H](O)[C@H](O[C@@H]2OC[C@@H](O)[C@H](O)[C@H]2O)[C@H]1O (stereo partly shown) [Astersaponin F] | x | 1 | x | –
7 | COc1ccc([C@@H]2CC(=O)c3c(O)cc(O)cc3O2)cc1O [hesperetin] | – | – | – | 41
